Read-outs that look alike come from different tables or passages of the source. Some results are limits rather than exact numbers.

Our source for the ionized, precipitation with brimonidine and Solubility values is patent publication US10517869B2 (SENTISS PHARMA PRIVATE LIMITED, priority 2013, dated 2019).

For data set [1] the following is noted: at a pH of 6.4.
Data set [2] is described as follows: Compatibility of quaternary ammonium preservative with brimonidine (precipitation). As to conditions: pH of around 6.0. The data set is classed as physicochemical. The source says:
Benzododecinium bromide forms an ion pair with brimonidine, thereby neutralizing the charge of brimonidine.
Benzododecinium halide (e.g., bromide) forms an ion pair with brimonidine, thereby neutralizing the charge of brimonidine. […] Thus it was surprising to find that benzododecinium halide is compatible with brimonidine.

The conditions of data set [3]: cited from earlier work.

Take `Brc1c(NC2=NCCN2)ccc2nccnc12` [Brimonidine]: the ionized result in data set [1] is on record as “about 90%”.
As for `CCCCCCCCCCCC[N+](C)(C)Cc1ccccc1.[Br-]` [benzododecinium bromide], in data set [2], the precipitation with brimonidine result was “does not form a precipitation with brimonidine”.
Same read-out and setting: then benzalkonium chloride, with “forms a hazy solution”.
As for brimonidine tartrate, the Solubility in data set [3] (Study 1, pH 5.55) is listed as at least 164.4; in data set [3] (Study 1, pH 5.92) it was 132.6; in data set [3] (Study 1, pH 6.14), 30.4; in data set [3] (Study 1, pH 6.57), 7.55; in data set [3] (Study 1, pH 7) it was 2.69; in data set [3] (Study 1, pH 7.45), 1.17. For the same molecule, the Solubility in data set [3] (Study 1, pH 7.83) is recorded as 0.62; in data set [3] (Study 2, pH 5.5), at least 200.6; in data set [3] (Study 2, pH 5.92) it was 160.8; in data set [3] (Study 2, pH 6.06), 50.1; in data set [3] (Study 2, pH 6.9), 3.19; in data set [3] (Study 2, pH 7.4), 1.19. For the same molecule, the Solubility was 0.63 in data set [3] (Study 2, pH 7.77); 0.58 in data set [3] (Study 2, pH 7.86); 0.54 in data set [3] (Study 2, pH 7.88).
